From patent US20240140957A1, “BRIDGED COMPOUNDS AS KRAS G12D INHIBITOR AND DEGRADER AND THE USE THEREOF” (BeiGene Switzerland GmbH, priority 2021, published 2024)
Read-outs that look alike come from different tables or passages of the source.

How the values were obtained:
GDP-loaded WT KRAS = GDP-loaded WT KRAS (Homo sapiens, UniProt P01116); assay: KRAS WT Probe Displacement Assay; assay type: binding
GDP-loaded KRAS G12D = GDP-loaded KRAS G12D (Homo sapiens, UniProt P01116, G12D); assay: KRAS G12D Probe Displacement Assay; assay type: binding
KRAS G12D:SOS1 = KRAS G12D:SOS1 (Homo sapiens, UniProt P01116, G12D); assay: KRAS G12D:SOS1 GDP TR-FRET assay; assay type: binding; conditions: GST-KRAS G12D 37.5 nM, GDP 10 μM, His-SOS1 18 nM
Procedure: (§1) KRAS:SOS1 GDP TR-FRET Assay
(§2) This assay was used to identify compounds which competitively interact with the binding of KRAS protein to SOS1 in the presence of GDP. […] All protein and reaction solutions were prepared in assay buffer containing DPBS pH7.5, 0.1% BSA, and 0.05% Tween 20. Purified GST-tagged WT KRAS or KRAS G12D protein (37.5 nM final assay concentration) and GDP (Sigma, 10 μM final assay concentration) mixture, a serially diluted compound (top final concentration is 50 μM or 10 uM, 3-fold serially diluted, 10 points) and His-tagged SOS1 protein (18 nM final assay concentration) were added into the assay plates (384 well microplate, black, Corning) sequentially. Plates are incubated at 24° C. for 1 hr. Following the incubation, Mab Anti-GST-Tb cryptate (Cisbio) and […] (Cisbio) were added and further incubated at 24° C. for another 1 hr. The TR-FRET signals (ex337 nm, em665 nm/620 nm) were read on BMG PHERAstar FSX instrument. The inhibition percentage of KRAS protein binding with SOS1 in presence of increasing concentrations of compounds was calculated based on the ratio of fluorescence at 665 nm to that at 620 nm. The IC50 value of each compound was calculated from fitting the data to the four-parameter logistic model by Dotmatics.

WT KRAS:SOS1 = WT KRAS:SOS1 (Homo sapiens, UniProt P01116); assay: KRAS WT:SOS1 GDP TR-FRET assay; assay type: binding; conditions: GST-WT KRAS 37.5 nM, GDP 10 μM, His-SOS1 18 nM
Procedure: as §1, §2

[1] = test system: pERK1/2 (THR202/TYR204) in AsPC-1 cells; assay: pERK Assay (HTRF) in AsPC-1 cells; assay type: cell-based; conditions: Homo sapiens, ASPC1, 2 h compound treatment
[2] = WT KRAS 3 nM, biotinylated probe 1 60 nM, read-out: KRAS WT Probe Displacement Assay IC50
[3] = KRAS G12D 0.5 nM, biotinylated probe 2 4 nM, read-out: KRAS G12D Probe Displacement Assay IC50

Chain of KRAS G12D:SOS1 (P01116 1-188 isoform P01116-2 G12D): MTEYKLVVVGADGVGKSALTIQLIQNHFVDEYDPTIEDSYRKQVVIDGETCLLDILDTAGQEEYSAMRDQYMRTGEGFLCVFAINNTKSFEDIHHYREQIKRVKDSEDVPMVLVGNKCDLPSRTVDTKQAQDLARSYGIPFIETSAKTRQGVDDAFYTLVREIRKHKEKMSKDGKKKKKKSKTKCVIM
Chain of GDP-loaded KRAS G12D (P01116 1-188 isoform P01116-2 G12D): as above
Chain of WT KRAS:SOS1 (P01116 1-188 isoform P01116-2): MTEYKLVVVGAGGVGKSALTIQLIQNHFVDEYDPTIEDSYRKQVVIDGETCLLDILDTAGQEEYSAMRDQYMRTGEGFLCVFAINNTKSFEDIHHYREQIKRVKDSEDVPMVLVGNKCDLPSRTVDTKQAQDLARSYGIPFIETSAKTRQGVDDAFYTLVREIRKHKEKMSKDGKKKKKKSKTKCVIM
Chain of GDP-loaded WT KRAS (P01116 1-188 isoform P01116-2): as above

SMILES	IC50 (GDP-loaded WT KRAS; [2]) [nM]	IC50 (GDP-loaded KRAS G12D; [3]) [nM]	IC50 (KRAS G12D:SOS1) [nM]	IC50 (WT KRAS:SOS1) [nM]	IC50 [1] [nM]	IC50 (GDP-loaded WT KRAS) [nM]	IC50 (GDP-loaded KRAS G12D) [nM]
CN1C[C@H](F)C[C@H]1COc1nc(N2CC3CCC(C2)N3)c2cc(Cl)c(-c3ccc(F)c4sc(N)nc34)c(Cl)c2n1 [Example E53, 4-(4-(3,8-diazabicyclo[3.2.1]octan-3-yl)-6,8-dichloro-2-(((2S,4R)-4-fluoro-1-methylpyrrolidin-2-yl)methoxy)quinazolin-7-yl)-7-fluorobenzo[d]thiazol-2-amine]	47	1.2	5.1	132	380	–	–
Cc1cc(N)nc(-c2c(Cl)cc3c(N4CC5CCC(C4)N5)nc(OCC45CCCN4CC(F)C5)nc3c2F)c1C(F)(F)F (stereo not shown) [Example E50, 6-(4-(3,8-diazabicyclo[3.2.1]octan-3-yl)-6-chloro-8-fluoro-2-((2-fluorotetrahydro-1H-pyrrolizin-7a(5H)-yl)methoxy)quinazolin-7-yl)-4-methyl-5-(trifluoromethyl)pyridin-2-amine]	–	–	7.6	140	312	160	4
Cc1cc(N)nc(-c2c(Cl)cc3c(N4CC5CCC(C4)N5)nc(OC[C@@H]4C[C@@H](F)CN4C)nc3c2F)c1C(F)(F)F [Example E37, 6-(4-(3,8-diazabicyclo[3.2.1]octan-3-yl)-6-chloro-8-fluoro-2-(((2S,4R)-4-fluoro-1-methylpyrrolidin-2-yl)methoxy)quinazolin-7-yl)-4-methyl-5-(trifluoromethyl)pyridin-2-amine]	700	16	13	692	807	–	–
C[C@@H](CN1CCOCC1)Oc1nc(N2C3CCC2CNC3)c2cc(Cl)c(-c3ccc(F)c4sc(N)nc34)c(F)c2n1 [Example E41, 4-(4-(3,8-diazabicyclo[3.2.1]octan-8-yl)-6-chloro-8-fluoro-2-(((S)-1-morpholinopropan-2-yl)oxy)quinazolin-7-yl)-7-fluorobenzo[d]thiazol-2-amine]	230	11	11	438	1480	–	–
CN1C[C@H](F)C[C@H]1COc1nc(N2CC3CCC(C2)N3)c2cc(C(F)(F)F)c(-c3ccc(F)c4sc(N)nc34)c(F)c2n1 [Example E51, 4-(4-(3,8-diazabicyclo[3.2.1]octan-3-yl)-8-fluoro-2-(((2S,4R)-4-fluoro-1-methylpyrrolidin-2-yl)methoxy)-6-(trifluoromethyl)quinazolin-7-yl)-7-fluorobenzo[d]thiazol-2-amine]	33	1.1	6.5	61	202	–	–
CN1C[C@H](F)C[C@H]1COc1nc(N2C3CCC2CNC3)c2cc(Cl)c(-c3ccc(F)c4sc(N)nc34)c(F)c2n1 [Example E36, 4-(4-(3,8-diazabicyclo[3.2.1]octan-8-yl)-6-chloro-8-fluoro-2-(((2S,4R)-4-fluoro-1-methylpyrrolidin-2-yl)methoxy)quinazolin-7-yl)-7-fluorobenzo[d]thiazol-2-amine]	120	3.7	10	242	715	–	–
C[C@@H](CN1CCC(F)C1)Oc1nc(N2C3CCC2CNC3)c2cc(Cl)c(-c3ccc(F)c4sc(N)nc34)c(F)c2n1 (stereo partly drawn) [Example E43, 4-(4-(3,8-diazabicyclo[3.2.1]octan-8-yl)-6-chloro-8-fluoro-2-(((2S)-1-(3-fluoropyrrolidin-1-yl)propan-2-yl)oxy)quinazolin-7-yl)-7-fluorobenzo[d]thiazol-2-amine]	320	8.4	17	488	2550	–	–
CN(C)C(=O)CCOc1nc(N2CC3CCC(C2)N3)c2cc(Cl)c(-c3ccc(F)c4sc(N)nc34)c(F)c2n1 [Example E40, 3-((7-(2-amino-7-fluorobenzo[d]thiazol-4-yl)-4-(3,8-diazabicyclo[3.2.1]octan-3-yl)-6-chloro-8-fluoroquinazolin-2-yl)oxy)-N,N-dimethylpropanamide]	1400	41	24	2210	> 10000	–	–
